Results on 13 molecules are retold here after patent US20100316655A1, “COMPOUNDS WITH MDR1-INVERSE ACTIVITY” (priority 2008, published 2010).

Where only a bound is given, the exact number is not on record here.

The test system of assay [1] is KB-3-1 adenocarcinoma cells. The assay is described as follows: MTT cytotoxicity assay, parental P-gp-negative KB-3-1 cells. Type of assay: cell-based, human. The protocol:
(§1) Exemplary compounds were also tested against the KB-V1 adenocarcinoma cell line that expresses high levels of P-gp (the protein product of MDR1). […] MDR1 selectivity is determined by the ratio of IC50 against KB-3-1 cells divided by its IC50 against KB-V1 cells.
(§2) This example describes evaluation of compounds using the MTT cytotoxicity assay. Cell survival was measured by the MTT (3-(4,5-dimethylthiazol-2-yl)-2,5-diphenyltetrazolium bromide) assay as previously described by Ludwig, J. A. et al. Selective toxicity of NSC73306 in MDR1-positive cells as a new strategy to circumvent multidrug resistance in cancer. […] Briefly, cells were seeded in […] of growth medium at a density of 5000 cells/well in 96-well plates and allowed to establish for 24 hours, at which time serially diluted drugs were added in an additional […] growth medium. Cells were then incubated for 72 hours at 37° C. in humidified 5% CO2, at which time the growth media was drawn, and replaced with MTT in IMDM growth media and incubated for 4 hours. The MTT solution was then drawn from the wells, and […] acidified ethanol solution was added to each well and after 15 minutes absorption at 560 nm was measured.

Assay [2] relates to KB-V1 adenocarcinoma cell line. The experiment in a line: MTT cytotoxicity assay, P-gp (MDR1) expressing KB-V1 cells; MDR1 selectivity vs KB-3-1. Type of assay: cell-based, human. As to conditions: for IC50: MTT, 72 hours; for MDR1 selectivity / MDR1 select.: ratio of IC50 against KB-3-1 divided by IC50 against KB-V1; for MDR1 selectivity: >1 = MDR1-inverse activity. The protocol:
as §1, §2

Setting [3] is: Homo sapiens, Table 1, 72 hours, KB-3-1 (P-gp-negative).
[4] abbreviates: Homo sapiens, Table 1, KB-V1 (high P-gp).
Where [5] appears, read: Table 2, 72 hours, unit inferred.

In the case of `COc1ccc(NC(=S)N/N=C2\C(=O)Nc3ccc([N+](=O)[O-])cc32)cc1` [drawing 39], the IC50 in assay [1] (setting [3]) was 26.3 ± 5.5 µM; in assay [2] (setting [4]) it was 6.7 ± 2.9 µM. Moreover, in assay [2] (Table 1), the MDR1 selectivity worked out at 4.0.
As for `O=C1Nc2ccccc2/C1=N/NC(=S)Nc1ccc([N+](=O)[O-])cc1` [Compound M17, 1-Isatin-4-(4′-nitrophenyl)thiosemicarbazone], the IC50 in assay [1] (Homo sapiens, KB 3-1, Table 2, 72 hours, unit inferred) is 17.2 µM; in assay [2] (Homo sapiens, KB-V1, Table 2, unit inferred), 2.07 µM. Besides, the MDR1 select. in assay [2] (Table 2) stood at 8.27.
As for `O=C1Nc2ccccc2C1=NNC(=S)Nc1ccc(C(=O)O)cc1` [Compound M19, 1-isatin-4-(4′-carboxyphenyl)-3-thiosemicarbazone], the IC50 in assay [1] (setting [5]) is more than 50 µM; in assay [2] (Table 2, unit inferred), more than 50 µM. Also, the MDR1 select. in assay [2] (Table 2) is on record as 1.00.
`O=C1Nc2ccccc2C1=NNC(=S)NCc1ccccc1` [Compound M6, 1-Isatin-4-benzyl-3-thiosemicarbazone]: the IC50 in assay [1] (setting [5]) was found to be 11.7 µM; in assay [2] (Table 2, unit inferred), 7.63 µM. Moreover, the MDR1 select. in assay [2] (Table 2) came out at 1.53.
Consider `COc1ccc(NC(=S)N/N=C/c2ccccn2)cc1` [drawing 37], for which the IC50 stood at 3.4 ± 1.5 µM in assay [1] (setting [3]) and 2.4 ± 0.5 µM in assay [2] (setting [4]). For the same molecule, the MDR1 selectivity in assay [2] (Table 1) is given as 1.4.
As to `COc1ccc(NC(=O)N/N=C2\C(=O)Nc3ccccc32)cc1`, the concentration for half-maximal inhibition (IC50) is 27.7 ± 3.3 µM in assay [1] (setting [3]) and more than 50 µM in assay [2] (setting [4]).
Turning to `COc1ccccc1NC(=S)NN=C1C(=O)Nc2ccccc21` [Compound M18, 1-isatin-4-(2′-methoxyphenyl)-3-thiosemicarbazone], the IC50 in assay [1] (setting [5]) stood at 4.96 µM; in assay [2] (Table 2, unit inferred), 2.69 µM. For the same molecule, the MDR1 select. in assay [2] (Table 2) stood at 1.84.
For the molecule `O=C1Nc2ccccc2C1=NNC(=S)NC1CCCCC1` [Compound M2, 1-Isatin 4-cyclohexyl-3-thiosemicarbazone], the IC50 in assay [1] (setting [5]) was determined as 9.14 µM; in assay [2] (Table 2, unit inferred), 4.38 µM. The MDR1 select. in assay [2] (Table 2) came out at 2.09.
For the molecule `COc1ccc(NC(=S)NN)cc1`, the IC50 in assay [1] (setting [3]) and in assay [2] (setting [4]) was more than 50 µM each time.
Consider `O=C1Nc2ccccc2C1=NNC(=S)Nc1cccc(Cl)c1` [Compound M7, 1-Isatin-(3′-chlorophenyl)-3-thiosemicarbazone], for which the IC50 in assay [1] (setting [5]) turned out to be 1.87 µM; in assay [2] (Table 2, unit inferred), 0.64 µM. In addition, the MDR1 select. in assay [2] (Table 2) worked out at 2.92.
With `COc1ccc(NC(=S)N/N=C2\C(=O)Nc3ccc(S(=O)(=O)O)cc32)cc1`, the IC50 in assay [1] (setting [3]) and in assay [2] (setting [4]) was more than 50 µM each time.
`O=C1Nc2ccccc2C1=NNC(=S)Nc1ccc(Cl)cc1` [Compound M12, 1-Isatin-(4′-chlorophenyl)-3-thiosemicarbazone]: the concentration for half-maximal inhibition (IC50) in assay [1] (setting [5]) came to 13.4 µM; in assay [2] (Table 2, unit inferred), 4.99 µM. The MDR1 select. in assay [2] (Table 2) is 2.68.
As to `COc1ccc(NC(=S)N/N=C/c2ccc(NC(C)=O)cc2)cc1`, the 50% inhibitory concentration (IC50) in assay [1] (setting [3]) and in assay [2] (setting [4]) was more than 50 µM throughout.
